The test system of test [1] is MDA-MB-231 (human breast cancer) cell line. Briefly: MTT cell viability assay in MDA-MB-231 cells. The format is cell-based. Particulars: for inhibition at 25 µM: MDA-MB-231, 25 μM concentration; for IC50: MDA-MB-231, MTT, concentrations 10, 25 and 50 µM, n = 3, read-out: IC50 against MDA-MB-231 breast cancer cell line; for IC50 / viability at 10 µM / viability at 25 µM / viability at 50 µM: 72 h; for viability at 10 µM / viability at 25 µM / viability at 50 µM: Table 2, MDA-MB-231, MTT, read-out: Cell viability (%) ± SD. An outline of the steps:
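MDA-MB-231 cells in DMEM/10% FBS, used before passage 8, exposed to compounds at several concentrations for 72 h at 37 °C. MTT added for 3 h; formazan dissolved in DMSO and read at 595 nm. Viability expressed as percent of untreated control.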
(In general: Formazan colour is commonly taken as a measure of viable cells.)

In test [2] the test system is MCF-7 (hormone receptor/HR-positive breast cancer cells). Put plainly: MTT cell viability assay in MCF-7 cells. The format is cell-based. Conditions: Homo sapiens, MCF7, read-out: Cell viability (%) ± SD; for viability at 1 µM: MCF-7, 1 µM; for viability at 10 µM: MCF-7, 10 µM; for viability at 25 µM: MCF-7, 25 µM. Here is the method: MDA-MB-231 represents a specific subtype known as triple-negative breast cancer (TNBC). The investigation study was extended with active six hit compounds (9a, 9d, 9h, 10d, 10f, and 11g) in two other different cancer cell lines (MCF-7 and MDA-MB-453), each representing a separate class of breast cancers (MCF-7: hormone receptor/HR-positive; MDA-MB-453: human epidermal growth factor 2 receptor/HER2 positive).
We also included normal mammary epithelial MCF-10A cells in our experiments to confirm if the growth-inhibitory activities of the selected compounds are truly cancer cell-specific. The activity data from MCF-7 and MDA-MB-453 cell lines (tested at 1 µM, 10 µM and 25 µM) and activity data from MCF-10A cell line (tested at 25 µM, 50 µM and 100 µM) are summarized in Table 3.
To evaluate cell viability, the MTT assay was conducted following standard procedures. After 72 h of cell incubation with or without each compound, cell viability was assessed using MTT (3-(4,5-dimethylthiazol-2-yl)-2,5-diphenyltetrazolium bromide), which is a colorimetric method for determining the number of viable cells in various assays including proliferation, cytotoxicity, or chemosensitivity. The MTT reagent was added to the cells after removal of the medium and incubated for 3 h at 37 °C in the CO2 incubator. The formazan product, which is […] in the tissue culture medium, was dissolved in DMSO, and the absorbance of the formazan product was directly measured at 595 nm using a multimode plate reader without additional processing. The absorbance values are directly proportional to the number of viable cells in culture. The percentage of viable cells in each group was determined relative to the untreated control cells.

In test [3] the test system is MDA-MB-453 (HER2 positive breast cancer cells). Put plainly: MTT cell viability assay in MDA-MB-453 cells. The format is cell-based, human. Particulars: for viability at 1 µM / viability at 10 µM / viability at 25 µM: Homo sapiens, read-out: Cell viability (%) ± SD; for viability at 1 µM: MDA-MB-453, 1 µM; for viability at 10 µM: MDA-MB-453, 10 µM; for viability at 25 µM: MDA-MB-453, 25 µM; for IC50 value against MDA-MB-453 cells (in words): tested at 1 µM, 10 µM and 25 µM. Here is the method: MDA-MB-231 represents a specific subtype known as triple-negative breast cancer (TNBC). The investigation study was extended with active six hit compounds (9a, 9d, 9h, 10d, 10f, and 11g) in two other different cancer cell lines (MCF-7 and MDA-MB-453), each representing a separate class of breast cancers (MCF-7: hormone receptor/HR-positive; MDA-MB-453: human epidermal growth factor 2 receptor/HER2 positive). […] We also included normal mammary epithelial MCF-10A cells in our experiments to confirm if the growth-inhibitory activities of the selected compounds are truly cancer cell-specific. The activity data from MCF-7 and MDA-MB-453 cell lines (tested at 1 µM, 10 µM and 25 µM) and activity data from MCF-10A cell line (tested at 25 µM, 50 µM and 100 µM) are summarized in Table 3. To evaluate cell viability, the MTT assay was conducted following standard procedures. After 72 h of cell incubation with or without each compound, cell viability was assessed using MTT (3-(4,5-dimethylthiazol-2-yl)-2,5-diphenyltetrazolium bromide), which is a colorimetric method for determining the number of viable cells in various assays including proliferation, cytotoxicity, or chemosensitivity. The MTT reagent was added to the cells after removal of the medium and incubated for 3 h at 37 °C in the CO2 incubator. The formazan product, which is […] in the tissue culture medium, was dissolved in DMSO, and the absorbance of the formazan product was directly measured at 595 nm using a multimode plate reader without additional processing. The absorbance values are directly proportional to the number of viable cells in culture. The percentage of viable cells in each group was determined relative to the untreated control cells.

Test [4] relates to MCF-7 (hormone receptor/HR-positive breast cancer cells). Put plainly: MTT cell viability assay in MCF-7 cells. The format is cell-based. Particulars: Homo sapiens, MCF7, 72 h, concentrations 10 µM, 25 µM and 50 μM in Fig. 10, read-out: IC50 against MCF-7 breast cancer cells line.

Turning to `CC(=O)OC[C@H]1O[C@@H](n2cc(COc3cc(-c4ccc(C)cc4)nc4ccnn34)nn2)[C@H](OC(C)=O)[C@@H](OC(C)=O)[C@@H]1OC(C)=O` [Compound 9a, (2R,3R,4S,5R,6R)-2-(acetoxymethyl)-6-(4-(((5-(p-tolyl)pyrazolo[1,5-a]pyrimidin-7-yl)oxy)methyl)-1H-1,2,3-triazol-1-yl)tetrahydro-2H-pyran-3,4,5-triyl triacetate], in test [1], the inhibition – broadly, how much of the control response was suppressed – at 25 µM was around 50%; the IC50 (usually the concentration that inhibits the measured activity by half) turned out to be 29.6 µM; the viability – broadly, a read-out of living cells in per cent, often relative to untreated cells – at 10 µM worked out at 70.1 ± 9.53%; the viability at 25 µM came to 51 ± 9.19%. The viability at 50 µM in test [1] was determined as 35.3 ± 4.29%. For the same compound, in test [2], the viability at 1 µM was found to be 68.7 ± 1.18%, the viability at 10 µM worked out at 41.3 ± 3.6% and the viability at 25 µM is 21.7 ± 4%. In test [3], the viability at 1 µM turned out to be 80.6 ± 8%, the viability at 10 µM was 86.4 ± 5.4%, the viability at 25 µM was determined as 78.1 ± 5.7% and the “IC50 value against MDA-MB-453 cells (in words)” value (“IC50 value” for short) is given as “did not reach up to IC50 value”. Besides, in test [4], the IC50 is 35.4 µM.

For `CC(=O)OC[C@H]1O[C@@H](n2cc(COc3cc(-c4ccc(Cl)cc4)nc4ccnn34)nn2)[C@H](OC(C)=O)[C@@H](OC(C)=O)[C@@H]1OC(C)=O` [Compound 9d, (2R,3R,4S,5R,6R)-2-(acetoxymethyl)-6-(4-(((5-(4-chlorophenyl)pyrazolo[1,5-a]pyrimidin-7-yl)oxy)methyl)-1H-1,2,3-triazol-1-yl)tetrahydro-2H-pyran-3,4,5-triyl triacetate], in test [1], the inhibition at 25 µM is around 50%, the IC50 came out at 43.1 µM, the viability at 10 µM worked out at 75.6 ± 9.76% and the viability at 25 µM was found to be 61 ± 8.47%. The viability at 50 µM in test [1] was 58.6 ± 5.61%. In test [2], the viability at 1 µM was 100 ± 4.5%, the viability at 10 µM came out at 69.8 ± 1.8% and the viability at 25 µM came to 62.8 ± 3%. Besides, in test [3], the viability at 1 µM came out at 80.8 ± 3.2%, the viability at 10 µM worked out at 82.2 ± 11.5%, the viability at 25 µM came out at 65.3 ± 5.8% and the “IC50 value” value is listed as “did not reach up to IC50 value”. In test [4], the IC50 was 15.3 µM.

Take `CC(=O)OC[C@H]1O[C@@H](n2cc(COc3cc(-c4ccc5ccccc5c4)nc4ccnn34)nn2)[C@H](OC(C)=O)[C@@H](OC(C)=O)[C@@H]1OC(C)=O` [Compound 9h, (2R,3R,4S,5R,6R)-2-(acetoxymethyl)-6-(4-(((5-(naphthalen-2-yl)pyrazolo[1,5-a]pyrimidin-7-yl)oxy)methyl)-1H-1,2,3-triazol-1-yl)tetrahydro-2H-pyran-3,4,5-triyl triacetate]: in test [1], the inhibition at 25 µM was around 50%, the IC50 stood at 35.9 µM, the viability at 10 µM came out at 96.6 ± 3.36% and the viability at 25 µM was 55.2 ± 7.06%. In addition, in test [1], the viability at 50 µM turned out to be 42.8 ± 5.04%. In test [2], the viability at 1 µM was found to be 79.2 ± 2.6%, the viability at 10 µM came to 58.7 ± 2.4% and the viability at 25 µM is 42.3 ± 7.6%. Besides, in test [3], the viability at 1 µM was determined as 105 ± 8.1%, the viability at 10 µM amounted to 74.8 ± 1.5%, the viability at 25 µM turned out to be 66.4 ± 3.2% and the “IC50 value” value is on record as “did not reach up to IC50 value”. The IC50 in test [4] turned out to be 21.1 µM.

As for `CC(=O)OC[C@H]1O[C@@H](n2cc(COc3cc(-c4ccc(Cl)cc4)nc4ccnn34)nn2)[C@H](OC(C)=O)[C@@H](OC(C)=O)[C@H]1OC(C)=O` [Compound 10d, (2R,3S,4S,5R,6R)-2-(acetoxymethyl)-6-(4-(((5-(4-chlorophenyl)pyrazolo[1,5-a]pyrimidin-7-yl)oxy)methyl)-1H-1,2,3-triazol-1-yl)tetrahydro-2H-pyran-3,4,5-triyl triacetate], in test [1], the inhibition at 25 µM is around 50%, the half-maximal inhibitory concentration (IC50) was found to be 29.1 µM, the viability at 10 µM came to 56.7 ± 8.23% and the viability at 25 µM was determined as 53.3 ± 6.32%. The viability at 50 µM in test [1] amounted to 41 ± 4.91%. In test [2], the viability at 1 µM is 66 ± 4.7%, the viability at 10 µM is 34 ± 2.5% and the viability at 25 µM turned out to be 20 ± 2.9%. Also, in test [3], the viability at 1 µM was 88.8 ± 5.2%, the viability at 10 µM amounted to 78.3 ± 4.7%, the viability at 25 µM came out at 69.6 ± 5.3% and the “IC50 value” value is “did not reach up to IC50 value”. Moreover, in test [4], the IC50 is 40.1 µM.

Take `CC(=O)OC[C@H]1O[C@@H](n2cc(COc3cc(-c4ccc(C(F)(F)F)cc4)nc4ccnn34)nn2)[C@H](OC(C)=O)[C@@H](OC(C)=O)[C@H]1OC(C)=O` [Compound 10f, (2R,3S,4S,5R,6R)-2-(acetoxymethyl)-6-(4-(((5-(4-(trifluoromethyl)phenyl)pyrazolo[1,5-a]pyrimidin-7-yl)oxy)methyl)-1H-1,2,3-triazol-1-yl)tetrahydro-2H-pyran-3,4,5-triyl triacetate]: in test [1], the inhibition at 25 µM is around 50%, the IC50 came out at 31.2 µM, the viability at 10 µM came to 69.4 ± 5.36% and the viability at 25 µM is 45.1 ± 3.32%. The viability at 50 µM in test [1] amounted to 41.2 ± 1.26%. Also, in test [2], the viability at 1 µM was 51.3 ± 3.1%, the viability at 10 µM came out at 28.4 ± 0.9% and the viability at 25 µM was 21.1 ± 4.4%. Besides, in test [3], the viability at 1 µM is 92.5 ± 4.6%, the viability at 10 µM came to 80.9 ± 1.2%, the viability at 25 µM worked out at 66.8 ± 1.7% and the “IC50 value” value is listed as “did not reach up to IC50 value”. For the same compound, the IC50 in test [4] is 42.1 µM.

As to `CC(=O)OC[C@H]1O[C@H](n2cc(COc3cc(-c4ccc(C(C)C)cc4)nc4ccnn34)nn2)[C@@H](OC(C)=O)[C@@H](OC(C)=O)[C@@H]1OC(C)=O` [Compound 11g, (2R,3R,4S,5S,6S)-2-(acetoxymethyl)-6-(4-(((5-(4-isopropylphenyl)pyrazolo[1,5-a]pyrimidin-7-yl)oxy)methyl)-1H-1,2,3-triazol-1-yl)tetrahydro-2H-pyran-3,4,5-triyl triacetate], in test [1], the inhibition at 25 µM was around 50%, the IC50 worked out at 38.8 µM, the viability at 10 µM is 66.7 ± 8.21% and the viability at 25 µM was 54.3 ± 6.12%. Besides, the viability at 50 µM in test [1] amounted to 45.3 ± 4.11%. Also, in test [2], the viability at 1 µM is 70.8 ± 4.2%, the viability at 10 µM is 68.2 ± 3.8% and the viability at 25 µM was found to be 49.1 ± 3.5%. In test [3], the viability at 1 µM was determined as 95.4 ± 4.8%, the viability at 10 µM was 76.4 ± 5.4%, the viability at 25 µM worked out at 96.1 ± 35.7% and the “IC50 value” value is on record as “did not reach up to IC50 value”. Further, the half-maximal inhibitory concentration (IC50) in test [4] was 18.3 µM.
